Measured values published in patent US8048869B2, “Pharmaceutical composition for use in hormone replacement therapy” (Pantarhei Bioscience B.V., priority 2001, dated 2011).

Columns and labels:
[1] = target: T1, rat uterine cytosol estrogen receptor (Rattus norvegicus, UniProt P06211); details: cited from earlier work
T1 construct: host or cells: rat uterus (cytosol and nuclear fractions), Martucci et al. 1976
T1 sequence (P06211 1-600): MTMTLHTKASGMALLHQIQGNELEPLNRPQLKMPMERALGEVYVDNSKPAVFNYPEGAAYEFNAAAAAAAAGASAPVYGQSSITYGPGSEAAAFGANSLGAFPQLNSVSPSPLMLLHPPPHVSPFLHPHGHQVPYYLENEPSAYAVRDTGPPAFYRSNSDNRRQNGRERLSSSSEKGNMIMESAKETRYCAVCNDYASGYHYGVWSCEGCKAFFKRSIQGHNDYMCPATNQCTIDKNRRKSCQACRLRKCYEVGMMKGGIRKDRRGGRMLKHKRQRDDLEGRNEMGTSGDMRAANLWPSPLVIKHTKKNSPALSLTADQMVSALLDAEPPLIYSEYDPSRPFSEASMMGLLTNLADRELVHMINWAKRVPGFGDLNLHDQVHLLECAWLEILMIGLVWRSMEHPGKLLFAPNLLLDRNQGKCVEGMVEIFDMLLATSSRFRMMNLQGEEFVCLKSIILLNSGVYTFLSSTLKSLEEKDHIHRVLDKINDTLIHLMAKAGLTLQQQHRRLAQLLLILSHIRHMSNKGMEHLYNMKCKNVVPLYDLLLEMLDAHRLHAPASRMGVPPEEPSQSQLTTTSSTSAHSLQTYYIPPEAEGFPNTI

[2] = tritium labeled, intravenously, two adult women; cited from earlier work
[3] = system: morphine-dependent ovariectomized (OVX) rat; assay: Morphine-dependent OVX rat hot flush model, naloxone-induced tail skin temperature rise; assay type: in vivo
Description: The morphine-dependent ovariectomized (OVX) rat was used as a model for postmenopausal hot flush. The potency of estetrol (E4) to prevent tail skin temperature rises, normally accompanied by a drop in core body temp arature, after naloxone-induced opiate withdrawel was tested. 17α-ethinyl-estradiol (EE) and vehicle. (hydroxy propyl-beta-cyclodextrin 20% wt/vol) served as controls in this bioassay.
The morphine-dependent ovariectomized (OVX) rat model has been proposed by several investigators (Katovich et al, 1986, Maturitas, 67-76; Merchenthaler et al. 1998, Maturitas, 307-316) as an animal model for the hot flush. During opiate withdrawal with the morphine antagonist naloxone, tail skin temperature (TST) rises and this rise is accompanied by a drop in core body temperature. In addition, the temperature changes are accompanied by surges in LH and a transient tachycardia. These events are similar in magnitude and temporal nature to those observed in the menopausal hot flush.
Three days prior to the commencement of dosing, animals were anesthetized using a ketamine/xylazine anesthetic mixture and underwent a bilateral ovariectomy. […]
For the hot flush manipulations the animals were placed in a test cage. […] The tail-skin temperature was recorded until it was stable and the animals were then injected with naloxone HCl (1 mg/kg). […]

[4] = system: immature rat uterus; details: subcutaneously administered; cited from earlier work
[5] = system: OVX-rats; assay: Endometrial proliferation after 4-week oral treatment (uterine weight, Ki67); assay type: in vivo, rat; details: 0.5 to […], 4 weeks (FIG. 5)
Excerpt: Endometrial proliferation was chosen as another relevant tissue-specific endpoint to determine the hormonal potency of estetrol after chronic (4-week), oral treatment in ovariectomized rats. An established 4-week animal model, also recommended for evaluation of agents for osteoporosis prevention and therapy, was used. […] 17α-ethinyl-estradiol (EE) and vehicle (1% ethanol/arachidis oil) served as additional controls in this bioassay.
Three months old female Sprague-Dawley rats were either sham-operated (Sham) or ovariectomized (OVX) one day prior to commencement of the dosing study as described in Example 2. Ten animals per treatment group were orally dosed once per day for four consecutive weeks. The dosing commenced 1 day after surgical removal of the ovaries and was administered by oral gavage using a syringe and stainless steel gavage needle at doses of 0.1 mg/kg /day EE, or either 2.5 or 0.5 mg/kg/day E4. Vehicle control was daily administered to one group of OVX-animals and sham-operated rats. After treatment, anesthetized rats were subjected to cardiac puncture and asphyxiated by CO2 inhalation. The uterine horns were isolated and weighed and then fixed in 4% formaldehyde at 4° C. […] Proliferative indices were determined by scoring positively labeled cells on Ki67 immunostained sections. Typically, for each datapoint 1000 luminal epithelial cells were evaluated.

[6] = target: T2, rat uterine nuclear estrogen receptor (Rattus norvegicus, UniProt P06211); details: cited from earlier work
T2 construct: host or cells: rat uterus (cytosol and nuclear fractions), Martucci et al. 1976
T2 sequence (P06211 1-600): T1 sequence (P06211 1-600)

C[C@]12CC[C@@H]3c4ccc(O)cc4CC[C@H]3[C@@H]1[C@@H](O)[C@@H](O)[C@@H]2O [E4, 1,3,5 (10)-estratrien-3,15α,16α,17β-tetrol]
relative binding affinity, 17β-estradiol = 100% [1]: 0.5% | excretion and metabolism [2]: rapidly and completely excreted in urine as the glucosiduronate | suppressive response on TST compared with EE ([3]; po, 3.0 mg/kg/day (FIG. 3)): suppressive response similar to the potent oral estrogen, 17α-ethinyl estradiol (EE) | effect on naloxone-induced tail skin temperature (TST) ([3]; po, 0.3, 1.0 and 3.0 mg/kg/day (FIG. 3)): attenuated the TST | uterotrophic activity [4]: very weak uterotrophic activity | percentage of Ki67-positive luminal epithelial cells, dose trend [5]: declined with increasing doses | relative binding affinity, 17β-estradiol = 100% [6]: 0.3%
